Results published in ChEMBL document CHEMBL1141891, “Crystallographic determination of stereochemistry of biologically active 2'',3''-dibromo-7-epi-10-deacetylcephalomannine” (Bioorg Med Chem Lett, 2005).
≈ marks a conversion by molar mass, not a printed value.

Experiments:
Format in all cases: functional, cell-based
A2780 = experiment: Inhibitory concentration against A2780 proliferation after 72 hr; conditions: Homo sapiens, A2780, 72 h
MCF7 = experiment: Inhibitory concentration required to inhibit MCF-7 Cell line growth on continuous exposure time of 72 h; conditions: Homo sapiens, MCF7, 72 h
A549 = experiment: Inhibitory concentration required to inhibit A549 Cell line growth on continuous exposure time of 72 h; conditions: Homo sapiens, A549, 72 h

Row | IC50 (A2780) [ng/mL] | IC50 (MCF7) [ng/mL] | IC50 (A549) [ng/mL] | SMILES
1 | 2.13 (≈ 2.24 nM) | 4.75 (≈ 5 nM) | 13 (≈ 13.7 nM) | CC(=O)O[C@@]12CO[C@@H]1C[C@@H](O)[C@@]1(C)C(=O)[C@H](O)C3=C(C)[C@@H](OC(=O)[C@H](O)[C@@H](NC(=O)[C@@](C)(Br)[C@H](C)Br)c4ccccc4)C[C@@](O)([C@@H](OC(=O)c4ccccc4)C12)C3(C)C (some centres not stated)
2 | 4.84 (≈ 5.1 nM) | 7.1 (≈ 7.48 nM) | 26.9 (≈ 28.3 nM) | CC(=O)O[C@@]12CO[C@@H]1C[C@@H](O)[C@@]1(C)C(=O)[C@H](O)C3=C(C)[C@@H](OC(=O)[C@H](O)[C@@H](NC(=O)[C@](C)(Br)[C@@H](C)Br)c4ccccc4)C[C@@](O)([C@@H](OC(=O)c4ccccc4)C12)C3(C)C (some centres not stated)
3 | 6.76 (≈ 7.92 nM) | – | – | CC(=O)O[C@H]1C(=O)[C@@]2(C)[C@H]([C@H](OC(=O)c3ccccc3)[C@]3(O)C[C@H](OC(=O)[C@H](O)[C@@H](NC(=O)c4ccccc4)c4ccccc4)C(C)=C1C3(C)C)[C@]1(OC(C)=O)CO[C@@H]1C[C@@H]2O [PACLITAXEL]
